These results are taken from ChEMBL document CHEMBL1126426, “Nucleotidic prodrugs of anti-HIV dideoxynucleosides” (Bioorg Med Chem Lett, 1992).

A short description of data set [1]: The compound was evaluated for its stability in RPMI containing 10 % of FCS. Type of data set: physicochemical. The note with it: cattle, RPMI culture medium with 10% FCS.
A short description of data set [2]: Kinetic constant in RPMI containing 10 % of FCS. The class given is ADME. The note with it: cattle.
Data set [3] is described as follows: The compound was evaluated for its stability in RPMI at pH of 7.2 dose 10 x 10e-3; S - Stable. The note with it: pH 7.2. The class given is physicochemical.
Data set [4] in a line: Kinetic constant in RPMI containing 10 % of heat-inactivated FCS. Type of data set: ADME. The note with it: cattle.
The subject of the next data set is CCRF-CEM. Description: The compound was evaluated for the activity on HIV infected CEM cells. The class given is functional. The note with it: Homo sapiens, read-out: ED50 (the source's name).
The nature of data set [5]: The compound was evaluated for its stability in RPMI containing 10 % of heat-inactivated FCS. The class given is physicochemical. The note with it: cattle, RPMI culture medium with 10% heat-inactivated FCS.
Data set [6] can be described thus: The compound was evaluated for its stability in CEM extract; S - Stable. The note with it: human. Type of data set: physicochemical.

In the case of `Nc1ccn(C2CCC(COP(=O)(O)OC[C@@H]3CC[C@H](n4ccc(N)nc4=O)O3)O2)c(=O)n1` (some centres undefined), the half-life in data set [1] is 22 h; in data set [5], 48 h. Besides, the k came out at 0.00052 min⁻¹ in data set [2] and 0.00024 min⁻¹ in data set [4]. The T1/2 result in data set [3] and in data set [6] was “Stable” each time. In addition, in the data set with CCRF-CEM, the EC50 stood at 50 nM.

Regarding `COP(=O)(OCC1CCC(n2ccc(N)nc2=O)O1)OC[C@@H]1CC[C@H](n2ccc(N)nc2=O)O1` (some centres undefined), the EC50 in the data set on CCRF-CEM stood at 500 nM.

Regarding `Nc1ccn([C@H]2CC[C@@H](CO)O2)c(=O)n1` [ZALCITABINE], in the data set on CCRF-CEM, the EC50 came out at 100 nM.

As usually defined, the half-life is the time in which the quantity being followed falls by half. Read a low half-life as fast loss.
